According to PMC11335262 (Cellular and Molecular Life Sciences: CMLS, 2024):
Like-named read-outs stand apart in the source and are kept apart here.

Molecular target: α9α10E287Q (Rattus norvegicus, UniProt P43144+Q9JLB5, E287Q)
Type: cell-based

Sequence of α9α10E287Q (P43144 26-479): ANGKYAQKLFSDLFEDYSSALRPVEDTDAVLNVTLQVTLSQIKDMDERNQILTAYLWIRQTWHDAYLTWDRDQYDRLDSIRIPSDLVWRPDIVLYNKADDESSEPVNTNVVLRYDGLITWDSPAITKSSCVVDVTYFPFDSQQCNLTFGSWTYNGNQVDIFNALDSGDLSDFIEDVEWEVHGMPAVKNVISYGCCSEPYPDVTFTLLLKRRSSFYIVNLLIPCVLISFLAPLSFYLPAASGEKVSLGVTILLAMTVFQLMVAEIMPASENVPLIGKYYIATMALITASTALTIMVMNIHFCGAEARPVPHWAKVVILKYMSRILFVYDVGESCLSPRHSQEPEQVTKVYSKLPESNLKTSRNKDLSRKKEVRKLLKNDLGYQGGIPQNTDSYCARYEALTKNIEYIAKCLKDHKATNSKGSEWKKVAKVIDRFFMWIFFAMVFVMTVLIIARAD
Sequence of α9α10E287Q (Q9JLB5 25-447 E287Q): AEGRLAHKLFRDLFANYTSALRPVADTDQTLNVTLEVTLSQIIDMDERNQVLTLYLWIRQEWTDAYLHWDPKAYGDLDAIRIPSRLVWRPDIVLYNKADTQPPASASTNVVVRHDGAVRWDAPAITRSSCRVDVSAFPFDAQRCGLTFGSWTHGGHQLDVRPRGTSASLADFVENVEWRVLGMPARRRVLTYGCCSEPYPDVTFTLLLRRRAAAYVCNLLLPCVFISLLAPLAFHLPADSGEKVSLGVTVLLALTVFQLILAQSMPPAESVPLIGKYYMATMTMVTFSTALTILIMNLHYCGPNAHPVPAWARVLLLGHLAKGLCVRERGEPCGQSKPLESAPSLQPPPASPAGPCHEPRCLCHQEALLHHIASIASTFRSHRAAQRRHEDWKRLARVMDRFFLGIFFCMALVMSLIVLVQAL

SMILES: [Ca+2] [Ca^2+, Calcium]
- modulation of ACh-evoked responses by extracellular Ca^2+ (in words) (20 µM ACh): not potentiated by Ca^2+
- ACh response, % of response at […] Ca^2+ (3 mM Ca^2+, 20 µM ACh): 67.6 ± 5.6%
- 3 / 0 Ca^2+ ratio of response (+40 mV, 20 µM ACh): 0.48 ± 0.04
- 3 / 0 Ca^2+ ratio of response (-90 mV, 20 µM ACh): 0.26 ± 0.02
- IC50 (read-out: Ca^2+ IC50, block of responses to 20 µM ACh): 300 ± 100 µM
- ACh response, % of response at […] Ca^2+ (zero Ca^2+, 20 µM ACh): 320.7 ± 97.4%
